Results from patent US20240294489A1 (Captor Therapeutics S.A., priority 2020, published 2024).
Counter-ions that a name gives are not always drawn. Blank lines part the entries; values can stand above or below the molecule they belong to.

What was measured:
Format in all cases: cell-based
H929 cells = test: Cell viability CTG assay, H929; design: key to Geomean absolute IC50 by molecule, 72 H: Inactive represents IC50 > 50 μM; C represents 50 μM ≥ IC50 > 5 μM; settings: H929, 72 h, 0.001-50 μM; for IC50: Homo sapiens, NCI-H929, numeric values, read-out: Geomean absolute IC50 by molecule, 72 H
Method: (§1) The effect of various compounds of the invention and various reference compounds on cell viability in various cell lines was investigated, using the Cell Viability—CTG Assay Protocol below. Hep3B, Kelly, H929, KG-1 and SNU-398 cells were maintained in respective cell medium (see Table 8, below). The cells were seeded on the 96-well or 384-white plates, and the compounds to be tested were added at the desired concentration range. Compounds are diluted in DMSO, and the DMSO concentration is kept constant at 0.25% v/v across the assay plate. After 72 h incubation (37° C., 5% CO2), CellTiter-Glo® Reagent (Promega/G7570) was added to the wells. Plates are shaken for 4 minutes and incubated for 8 minutes in the dark prior to reading luminescence (LU) by using the CLARIOstar Multimode Plate Reader. The signal is proportional to the amount of ATP, which is directly proportional to the number of cells present in the culture.
(§2) Luminescence (RLU) values were normalized to DMSO control. Dose response is assessed by non-linear regression and IC50 calculation with the average of technical duplicate of percentage inhibition. IC50 values are reported as absolute IC50 values, being the concentration of test compound at the intersection of the concentration-response curves with T/C=50%. For calculation of mean IC50 values the geometric mean is used.

Ikaros (IKZF1) = biological target: T1, Ikaros (IKZF1) (Homo sapiens, UniProt Q13422+Q96SW2); test: Ikaros degradation assay, H929 cell line; settings: H929 cells, 24 h; for % of IKZF1 protein reduction: numeric values; for inhibition at 10 µM / inhibition at 20 µM: NCI-H929, read-out: % of IKZF1 protein reduction
T1 construct: Ikaros degradation in the H929 cell line was investigated; endogenous in cells; host or cells: H929
Method: Cells were seeded on 6- or 12-well plates, and the compounds to be tested were added at the desired concentration range. […] After 24 h incubation (37° C., 5% CO2), cells were harvested, washed and cell lysates were prepared using RIPA lysis buffer. The amount of protein was determined via BCA assay, and the appropriate quantity was then loaded on the precast gel for the protein separation. After primary and secondary Ab staining, the membranes were washed and signals developed. The densitometry analysis was implemented to obtain the numeric values used later in the protein level evaluation process.

Hep3B cells = test: Cell viability CTG assay, Hep3B; settings: Homo sapiens, 72 h, 0.001-50 μM, read-out: Hep3B Geomean absolute IC50 by molecule, 72 H
Method: as §1, §2

GSPT1 = biological target: T2, GSPT1 (Homo sapiens, UniProt P15170+Q96SW2); test: GSPT1 degradation assay, Hep3B cell line; settings: HEP3B cells, 24 h, read-out: % of GSPT1 protein reduction
T2 construct: GSPT1 degradation in the Hep3B cell line was investigated; endogenous in cells; host or cells: Hep3B
Method: Hep3B cells were maintained in EMEM medium, supplemented with penicillin/streptomycin and 10% Fetal Bovine Serum (FBS). Cells were seeded on 6- or 12-well plates, and the compounds to be tested were added at the desired concentration range. Final DMSO concentration was 0.25%. After 24 h incubation (37° C., 5% CO2), cells were harvested, washed and cell lysates were prepared using RIPA lysis buffer. The amount of protein was determined via BCA assay, and the appropriate quantity was then loaded on the precast gel for the protein separation. After primary and secondary Ab staining, the membranes were washed and signals developed. The densitometry analysis was implemented to obtain the numeric values used later in the protein level evaluation process. Densitometry values were normalized to the loading control and calculated as [%] of the DMSO control.

Kelly cells = test: Cell viability CTG assay, Kelly; settings: 72 h, 0.001-50 μM, read-out: Kelly Geomean absolute IC50 by molecule, 72 H
Method: as §1, §2

KG-1 cells = test: Cell viability CTG assay, KG-1; settings: Homo sapiens; KG-1, 72 h, 0.001-50 μM; read-out: KG-1 Geomean absolute IC50 by molecule, 72 H
Method: as §1, §2

T2 sequence (P15170 whole entry): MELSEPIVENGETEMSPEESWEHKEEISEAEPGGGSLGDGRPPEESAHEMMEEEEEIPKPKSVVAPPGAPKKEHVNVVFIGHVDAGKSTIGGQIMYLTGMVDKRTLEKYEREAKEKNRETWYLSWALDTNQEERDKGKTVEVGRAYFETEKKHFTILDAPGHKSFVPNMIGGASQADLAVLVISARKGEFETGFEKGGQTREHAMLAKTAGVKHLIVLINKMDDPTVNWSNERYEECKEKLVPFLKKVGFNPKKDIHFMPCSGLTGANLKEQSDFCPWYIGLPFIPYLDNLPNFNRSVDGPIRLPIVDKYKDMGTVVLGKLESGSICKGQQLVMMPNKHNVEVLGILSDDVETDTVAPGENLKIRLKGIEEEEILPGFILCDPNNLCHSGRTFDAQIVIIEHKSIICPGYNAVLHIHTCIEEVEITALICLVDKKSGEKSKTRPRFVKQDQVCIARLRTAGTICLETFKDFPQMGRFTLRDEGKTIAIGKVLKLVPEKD
T2 sequence (Q96SW2 whole entry): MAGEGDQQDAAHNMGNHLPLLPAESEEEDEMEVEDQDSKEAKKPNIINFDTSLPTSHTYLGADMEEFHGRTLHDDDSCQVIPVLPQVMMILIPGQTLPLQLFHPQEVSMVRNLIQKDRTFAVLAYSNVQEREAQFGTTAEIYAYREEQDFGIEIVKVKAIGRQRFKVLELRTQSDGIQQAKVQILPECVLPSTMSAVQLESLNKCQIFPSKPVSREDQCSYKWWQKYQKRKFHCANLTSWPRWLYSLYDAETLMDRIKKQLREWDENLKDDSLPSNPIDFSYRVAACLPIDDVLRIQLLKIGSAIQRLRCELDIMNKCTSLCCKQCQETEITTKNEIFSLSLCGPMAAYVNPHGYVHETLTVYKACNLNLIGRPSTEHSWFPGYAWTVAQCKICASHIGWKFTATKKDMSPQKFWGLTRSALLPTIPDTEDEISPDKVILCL
T2 sequence (Q16531 whole entry partner): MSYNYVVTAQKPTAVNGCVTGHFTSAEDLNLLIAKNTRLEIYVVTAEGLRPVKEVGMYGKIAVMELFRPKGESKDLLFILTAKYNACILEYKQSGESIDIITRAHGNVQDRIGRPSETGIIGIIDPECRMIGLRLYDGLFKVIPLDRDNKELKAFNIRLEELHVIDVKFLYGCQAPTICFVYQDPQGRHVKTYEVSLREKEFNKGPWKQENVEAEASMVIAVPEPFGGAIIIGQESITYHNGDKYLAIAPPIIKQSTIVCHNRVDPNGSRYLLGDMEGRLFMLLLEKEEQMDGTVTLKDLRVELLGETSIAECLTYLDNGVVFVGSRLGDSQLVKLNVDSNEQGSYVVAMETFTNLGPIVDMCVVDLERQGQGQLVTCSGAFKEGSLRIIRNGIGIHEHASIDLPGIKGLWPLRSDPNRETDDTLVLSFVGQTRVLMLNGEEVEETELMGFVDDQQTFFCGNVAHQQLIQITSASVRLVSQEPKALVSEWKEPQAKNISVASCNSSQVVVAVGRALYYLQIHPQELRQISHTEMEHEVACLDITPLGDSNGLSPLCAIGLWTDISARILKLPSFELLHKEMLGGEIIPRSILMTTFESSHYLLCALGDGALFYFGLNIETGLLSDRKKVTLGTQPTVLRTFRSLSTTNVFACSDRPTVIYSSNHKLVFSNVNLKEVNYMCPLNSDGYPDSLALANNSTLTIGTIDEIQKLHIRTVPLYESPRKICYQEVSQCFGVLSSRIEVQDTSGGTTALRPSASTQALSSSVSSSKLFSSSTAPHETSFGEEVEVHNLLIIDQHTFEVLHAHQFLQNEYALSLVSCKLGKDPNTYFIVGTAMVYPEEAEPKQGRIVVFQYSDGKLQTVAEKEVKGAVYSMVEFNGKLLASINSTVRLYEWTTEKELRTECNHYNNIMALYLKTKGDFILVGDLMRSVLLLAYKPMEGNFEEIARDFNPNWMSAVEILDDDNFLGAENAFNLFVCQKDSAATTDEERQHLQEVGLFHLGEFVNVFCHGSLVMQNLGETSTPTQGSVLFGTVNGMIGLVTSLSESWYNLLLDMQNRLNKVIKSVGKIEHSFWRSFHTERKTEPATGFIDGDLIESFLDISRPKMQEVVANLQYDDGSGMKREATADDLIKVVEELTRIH
T1 sequence (Q13422 whole entry): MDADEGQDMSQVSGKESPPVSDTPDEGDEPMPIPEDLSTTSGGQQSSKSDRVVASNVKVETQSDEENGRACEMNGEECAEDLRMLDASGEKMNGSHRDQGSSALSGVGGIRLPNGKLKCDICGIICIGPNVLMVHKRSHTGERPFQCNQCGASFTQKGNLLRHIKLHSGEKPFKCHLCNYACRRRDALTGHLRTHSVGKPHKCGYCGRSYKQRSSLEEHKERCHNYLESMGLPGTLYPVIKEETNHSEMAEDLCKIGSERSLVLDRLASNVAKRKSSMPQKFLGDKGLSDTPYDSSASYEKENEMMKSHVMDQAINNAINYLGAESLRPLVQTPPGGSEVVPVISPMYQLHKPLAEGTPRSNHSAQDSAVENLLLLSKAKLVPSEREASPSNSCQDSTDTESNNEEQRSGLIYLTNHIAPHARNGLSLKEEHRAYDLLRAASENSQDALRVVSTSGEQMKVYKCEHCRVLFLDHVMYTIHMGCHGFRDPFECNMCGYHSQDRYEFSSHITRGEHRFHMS
T1 sequence (Q96SW2 whole entry): as the sequence (Q96SW2 whole entry) above
T1 sequence (Q16531 whole entry partner): as the sequence (Q16531 whole entry partner) above

inhibition at 10 µM (Ikaros (IKZF1); 10 uM): 0 to 24%
SMILES: Cc1cc2c(cc1CN)CN(C1CCC(=O)NC1=O)C2=O (stereo not drawn) [Compound 4, 3-[5-(aminomethyl)-6-methyl-1-oxo-2,3-dihydro-1H-isoindol-2-yl]piperidine-2,6-dione]

IC50 (Hep3B cells): 100 to 1000 nM
Geomean absolute IC50 by molecule, 72 H (H929 cells): Inactive
inhibition at 10 µM (GSPT1): 80 to 100%
inhibition at 10 µM (Ikaros (IKZF1); 10 uM): 0 to 24%
SMILES: NCc1ccc2c(c1F)CN(C1CCC(=O)NC1=O)C2=O (stereo not drawn) [Compound 5, 3-[5-(aminomethyl)-4-fluoro-1-oxo-2,3-dihydro-1H-isoindol-2-yl]piperidine-2,6-dione]

IC50 (Hep3B cells): ≤ 100 nM
Geomean absolute IC50 by molecule, 72 H (H929 cells): Inactive
SMILES: Cc1c(CN)ccc2c1CN(C1CCC(=O)NC1=O)C2=O (stereo not drawn) [Compound 6, 3-[5-(aminomethyl)-4-methyl-1-oxo-2,3-dihydro-1H-isoindol-2-yl]piperidine-2,6-dione]

inhibition at 10 µM (GSPT1): 50 to 79%
inhibition at 10 µM (Ikaros (IKZF1); 10 uM): 0 to 24%
SMILES: NCc1cc(F)c2c(c1)CN(C1CCC(=O)NC1=O)C2=O (stereo not drawn) [Compound 7, 3-[5-(aminomethyl)-7-fluoro-1-oxo-2,3-dihydro-1H-isoindol-2-yl]piperidine-2,6-dione]

inhibition at 20 µM (Ikaros (IKZF1); 20 uM): 0 to 24%
SMILES: C[C@H](N)c1ccc2c(c1)CN(C1CCC(=O)NC1=O)C2=O (stereo partly drawn) [Compound 8, 3-{5-[(1S)-1-aminoethyl]-1-oxo-2,3-dihydro-1H-isoindol-2-yl}piperidine-2,6-dione]

inhibition at 10 µM (Ikaros (IKZF1); 10 uM): 0 to 24%
SMILES: C[C@@H](N)c1ccc2c(c1)CN(C1CCC(=O)NC1=O)C2=O (stereo partly drawn) [Compound 10, 3-{5-[(1R)-1-aminoethyl]-1-oxo-2,3-dihydro-1H-isoindol-2-yl}piperidine-2,6-dione]

inhibition at 10 µM (Ikaros (IKZF1); 10 uM): 0 to 24%
SMILES: CN(C)Cc1ccc2c(c1)CN(C1CCC(=O)NC1=O)C2=O (stereo not drawn) [Compound 16, 3-(5-((dimethylamino)methyl)-1-oxoisoindolin-2-yl)piperidine-2,6-dione]

inhibition at 10 µM (Ikaros (IKZF1); 10 uM): 0 to 24%
SMILES: O=C1CCC(N2Cc3cc(CO)ccc3C2=O)C(=O)N1 (stereo not drawn) [Compound 17, 3-(5-(hydroxymethyl)-1-oxoisoindolin-2-yl)piperidine-2,6-dione]

inhibition at 10 µM (GSPT1): 80 to 100%
inhibition at 10 µM (Ikaros (IKZF1); 10 uM): 0 to 24%
SMILES: O=C1CCC(N2Cc3cc(C(=O)O)c(F)cc3C2=O)C(=O)N1 (stereo not drawn) [Compound 54, 2-(2,6-dioxopiperidin-3-yl)-6-fluoro-1-oxo-2,3-dihydro-1H-isoindole-5-carboxylic acid]

More lines, now with the values behind:

SMILES: Cc1nc2cccc(N)c2c(=O)n1C1CCC(=O)NC1=O (stereo not drawn) [CC-122, reference compound]
IC50 (H929 cells): 72 nM

SMILES: O=C1CC[C@@H](N2Cc3c(OCc4ccc(CN5CCOCC5)cc4)cccc3C2=O)C(=O)N1 [CC-220, reference compound]
IC50 (H929 cells): 4 nM

SMILES: Cc1ccc(NC(=O)NCc2ccc3c(c2)CN(C2CCC(=O)NC2=O)C3=O)cc1Cl (stereo not drawn) [CC-885, reference compound]
% of IKZF1 protein reduction (Ikaros (IKZF1); 10 uM): >99%
% of IKZF1 protein reduction (Ikaros (IKZF1); 20 uM): >99%

SMILES: C[C@H](NC(=O)OC(C)(C)C)c1ccc2c(c1)CN(C1CCC(=O)NC1=O)C2=O (stereo partly drawn) [Compound 9, tert-butyl N-[(1S)-1-[2-(2,6-dioxopiperidin-3-yl)-1-oxo-2,3-dihydro-1H-isoindol-5-yl]ethyl]carbamate]
inhibition at 20 µM (Ikaros (IKZF1); 20 uM): 0 to 24%

SMILES: C[C@@H](NC(=O)OC(C)(C)C)c1ccc2c(c1)CN(C1CCC(=O)NC1=O)C2=O (stereo partly drawn) [Compound 11, tert-butyl N-[(1R)-1-[2-(2,6-dioxopiperidin-3-yl)-1-oxo-2,3-dihydro-1H-isoindol-5-yl]ethyl]carbamate]
inhibition at 20 µM (Ikaros (IKZF1); 20 uM): 0 to 24%

SMILES: CC(=O)OCc1ccccc1C(=O)NCc1ccc2c(c1)CN(C1CCC(=O)NC1=O)C2=O (stereo not drawn) [Compound 19, [2-({[2-(2,6-dioxopiperidin-3-yl)-1-oxo-2,3-dihydro-1H-isoindol-5-yl]methyl}carbamoyl)phenyl]methyl acetate]
inhibition at 10 µM (GSPT1): 50 to 79%

SMILES: O=C1CCC(N2Cc3cc(CNC(=O)c4ccccc4CO)ccc3C2=O)C(=O)N1 (stereo not drawn) [Compound 20, N-{[2-(2,6-dioxopiperidin-3-yl)-1-oxo-2,3-dihydro-1H-isoindol-5-yl]methyl}-2-(hydroxymethyl)benzamide]
inhibition at 10 µM (GSPT1): 50 to 79%

SMILES: CC(C)(C)OC(=O)NCC(=O)NCc1ccc2c(c1)CN(C1CCC(=O)NC1=O)C2=O (stereo not drawn) [Compound 26, tert-butyl (2-(((2-(2,6-dioxopiperidin-3-yl)-1-oxoisoindolin-5-yl)methyl)amino)-2-oxoethyl)carbamate]
IC50 (Hep3B cells): ≤ 100 nM
Geomean absolute IC50 by molecule, 72 H (H929 cells): Inactive
inhibition at 20 µM (Ikaros (IKZF1); 20 uM): 0 to 24%

SMILES: CC(C)(C)OC(=O)N[C@@H](Cc1cnc[nH]1)C(=O)NCc1ccc2c(c1)CN([C@H]1CCC(=O)NC1=O)C2=O [Compound 30, tert-butyl ((S)-1-(((2-((S)-2,6-dioxopiperidin-3-yl)-1-oxoisoindolin-5-yl)methyl)amino)-3-(1H-imidazol-4-yl)-1-oxopropan-2-yl)carbamate]
inhibition at 20 µM (Ikaros (IKZF1); 20 uM): 0 to 24%

SMILES: CC(C)C(N)C(=O)NCc1ccc2c(c1)CN(C1CCC(=O)NC1=O)C2=O (stereo not drawn) [Compound 32, 2-amino-N-((2-(2,6-dioxopiperidin-3-yl)-1-oxoisoindolin-5-yl)methyl)-3-methylbutanamide]
inhibition at 20 µM (Ikaros (IKZF1); 20 uM): 0 to 24%

SMILES: CC(C)(C)OC(=O)NC(C)(C)C(=O)NCc1ccc2c(c1)CN(C1CCC(=O)NC1=O)C2=O (stereo not drawn) [Compound 33, tert-butyl (1-(((2-(2,6-dioxopiperidin-3-yl)-1-oxoisoindolin-5-yl)methyl)amino)-2-methyl-1-oxopropan-2-yl)carbamate]
inhibition at 20 µM (Ikaros (IKZF1); 20 uM): 0 to 24%

SMILES: CC(C)(N)C(=O)NCc1ccc2c(c1)CN(C1CCC(=O)NC1=O)C2=O (stereo not drawn) [Compound 34, 2-amino-N-((2-(2,6-dioxopiperidin-3-yl)-1-oxoisoindolin-5-yl)methyl)-2-methylpropanamide]
inhibition at 20 µM (Ikaros (IKZF1); 20 uM): 0 to 24%

SMILES: O=C(CCc1c[nH]c2ccccc12)NCc1ccc2c(c1)CN(C1CCC(=O)NC1=O)C2=O (stereo not drawn) [Compound 36]
IC50 (Kelly cells): ≤ 100 nM
IC50 (KG-1 cells): ≤ 100 nM
IC50 (Hep3B cells): ≤ 100 nM

SMILES: N=C(N)NCCCC(N)C(=O)NCc1ccc2c(c1)CN(C1CCC(=O)NC1=O)C2=O (stereo not drawn) [Compound 38, 2-amino-N-((2-(2,6-dioxopiperidin-3-yl)-1-oxoisoindolin-5-yl)methyl)-5-guanidinopentanamide]
IC50 (Hep3B cells): 100 to 1000 nM
Geomean absolute IC50 by molecule, 72 H (H929 cells): Inactive

SMILES: O=C(CCc1ccc(Cl)cc1)NCc1ccc2c(c1)CN(C1CCC(=O)NC1=O)C2=O (stereo not drawn) [Compound 42]
IC50 (Kelly cells): ≤ 100 nM
IC50 (KG-1 cells): ≤ 100 nM
IC50 (Hep3B cells): ≤ 100 nM

SMILES: O=C1CCC(N2Cc3cc(CNC(=O)[C@@H]4CCCN4)ccc3C2=O)C(=O)N1 (stereo partly drawn) [Compound 43, (2S)—N-((2-(2,6-dioxopiperidin-3-yl)-1-oxoisoindolin-5-yl)methyl)pyrrolidine-2-carboxamide hydrochloride]
IC50 (KG-1 cells): 1000 to 5000 nM
IC50 (Hep3B cells): 100 to 1000 nM
Geomean absolute IC50 by molecule, 72 H (H929 cells): Inactive
inhibition at 20 µM (Ikaros (IKZF1); 20 uM): 0 to 24%

SMILES: CC1c2cc(CN)ccc2C(=O)N1C1CCC(=O)NC1=O (stereo not drawn) [Compound 52, 3-[5-(aminomethyl)-3-methyl-1-oxo-2,3-dihydro-1H-isoindol-2-yl]piperidine-2,6-dione]
IC50 (Hep3B cells): ≤ 100 nM
Geomean absolute IC50 by molecule, 72 H (H929 cells): Inactive
inhibition at 10 µM (GSPT1): 80 to 100%
inhibition at 10 µM (Ikaros (IKZF1); 10 uM): 0 to 24%

SMILES: O=C1CCC(N2Cc3cc(C(=O)O)ccc3C2=O)C(=O)N1 (stereo not drawn) [Compound 53]
inhibition at 1 µM (GSPT1; 1 uM): 50 to 79%
inhibition at 10 µM (GSPT1): 80 to 100%
